From US20260374792A1, “PHENYL-FREE BISCATIONIC QUATERNARY PHOSPHONIUM COMPOUNDS AS ANTIMICROBIAL AGENTS” (priority 2022, published 2026) come the findings set out here.

The subject of data set [1] is red blood cells. Description: Red Blood Cell (RBC) Lysis Assay (lysis20). Format: cell-based, sheep. The conditions noted are these: concentration inducing 20% RBC lysis; sheep blood, 1 hour, 37 °C. On the procedure: RBC lysis assays were performed on mechanically defibrinated sheep blood (Hemostat Labs: DSB030). An aliquot of 1.5 mL blood was placed into a microcentrifuge tube and centrifuged at 3,800 rpm for ten minutes. The supernatant was removed, and the cells were resuspended with 1 mL of phosphate-buffered saline (PBS). The suspension was centrifuged as described above, the supernatant was removed, and cells were resuspended 4 additional times in 1 mL PBS. The final cell suspension was diluted twentyfold with PBS. Compounds were serially diluted with PBS two-fold from stock solutions (1.0 mM) to yield 100 μL of twelve test concentrations on a flat-bottom 96-well plate (Corning, 351172), wherein the starting concentration of DMSO was 2.5%. To each of the wells, 100 μL of the twentyfold suspension dilution was then inoculated. TritonX (1% by volume) served as a positive control (100% lysis marker) and sterile PBS served as a negative control (0% lysis marker). Samples were then placed in an incubator at 37 °C and shaken at 200 rpm. After 1 hour, the samples were centrifuged at 3,800 rpm for ten minutes. The absorbance of the supernatant was measured with a UV spectrometer at a 540 nm wavelength. The concentration inducing 20% RBC lysis was then calculated for each compound based upon the absorbances of the TritonX and PBS controls. Aqueous DMSO controls were conducted as appropriate for each compound.
The potential cytotoxicity of the compounds was also considered with the evaluation of hemolysis (lysis20) assays with 20% lysis of red blood cells serving as an indicator of potentially toxic compounds. Finally, the bioactivity of these compounds were benchmarked against a commercial benzalkonium chloride source (BAC; 70% benzyldimethyldodecylammonium chloride, and 30% benzyldimethyltetradecylammonium chloride) as well as some previously reported disinfectant compounds from the inventors' groups; included were bisQPC ^PhP6P-10,10 as well as ^PhP2P-10,10 and 12(2)12. A detailed description of the experimental procedures used to evaluate bioactivity and hemolysis assays are described above.

Data set [2] relates to HA-MRSA (ATCC 33591). Nature of the data set: MIC against hospital-acquired methicillin-resistant S. aureus (HA-MRSA). Format: cell-based. The conditions noted are these: Staphylococcus aureus, 72 h. The protocol:
The term “minimum inhibitory concentration (MIC)” means the lowest concentration of an antimicrobial agent that will inhibit the visible growth of a microorganism after overnight incubation. MIC values against bacteria, for example, the Gram-positive Staphylococcus aureus and Enterococcus faecalis and the Gram-negative Escherichia coli and Pseudomonas aeruginosa were determined by standard methods. See also P. A. Wayne, Methods for Dilution Antimicrobial Tests for Bacteria that Grow Aerobically; Approved Standard, Ninth Edition, 2012, CLSI Document M07-A9, Vol. 32 No. 2.
Biological testing procedures were adapted from prior work by Melander and coworkers. For all biological assays, laboratory strains of methicillin-susceptible Staphylococcus aureus MSSA (SH1000), Staphylococcus aureus CA-MRSA (USA300-0114), Staphylococcus aureus HA-MRSA (ATCC 33591), Escherichia coli (MC4100), Enterococcus faecalis (OG1RF), Acinetobacter baumannii (ATCC 17978), were grown with shaking at 37 °C overnight from freezer stocks in 5 mL of the indicated media: SH1000, OG1RF, MC4100, USA300-0114, and ATCC 17978 were grown in BDTM Mueller-Hinton broth (MHB), whereas ATCC 33591 was grown in BDTM tryptic soy broth (TSB). The inoculum were then streaked onto Mueller-Hinton agar (MHA) plates and grown overnight at 37 °C. From the plates, single colonies were selected, diluted into 50 mL of fresh media and grown overnight at 37 °C with shaking for use in the MIC assays. Optical density (OD) measurements were obtained using a SpectraMax iD3 plate reader (Molecular Devices, United States).
Compounds were serially diluted two-fold from stock solutions (1.0 mM) to yield twelve 100 μL test concentrations, wherein the starting concentration of dimethyl sulfoxide (DMSO) was 2.5%. Overnight S. aureus, E. faecalis, E. coli, A. baumannii, USA300-0114 (CA-MRSA), and ATCC 33591 (HA-MRSA) cultures were diluted to ca. 10^6 CFU/mL in MHB or TSB and regrown to mid-exponential phase, as determined by optical density recorded at 600 nm (OD600). All cultures were then diluted again to ca. 10^6 CFU/mL and 100 μL were inoculated into each well of a U-bottom 96-well plate (Corning, 351177) containing 100 μL of compound solution. Plates were incubated statically at 37 °C for 72 hours upon which wells were evaluated visually for bacterial growth. The MIC was determined as the lowest concentration of compound resulting in no bacterial growth visible to the naked eye, based on the highest value in three independent experiments. Aqueous DMSO controls were conducted as appropriate for each compound.
The prepared library of biscationic amphiphilic compounds was assessed for performance as antibacterial disinfectants by determining the minimum inhibitory concentration (MIC) for each against a panel of bacteria. The bacteria selected for the study were chosen to evaluate the broad spectrum antimicrobial performance of the QPCs, and therefore, included both Gram-positive and Gram-negative bacterial strains, including those with known antimicrobial resistance mechanisms. These bacteria include the Gram-positive strains of methicillin-susceptible Staphylococcus aureus [MSSA; SH1000], community-acquired methicillin-resistant Staphylococcus aureus [CA-MRSA; USA 300-0114], hospital-acquired methicillin-resistant Staphylococcus aureus [HA-MRSA; ATCC 33591] and the […], Escherichia coli [MC4100], Acinetobacter baumannii [ATCC 17498] and Pseudomonas aeruginosa [PAO1].

`CCCCCCCCCCCC[P+](C)(C)CC[P+](C)(C)CCCCCCCCCCC` [^MeP2P-12,12] displayed a Lysis20 in data set [1] of 8 µM. The MIC – broadly, the smallest concentration in the dilution series that meets the test's criterion for growth inhibition – in data set [2] is 1 µM.
Taken in the same sequence, the figures for `CCCCCCCCCCCC[N+](C)(C)CC[N+](C)(C)CCCCCCCCCCCC` [12(2)12, reference compound] were 16 µM and 1 µM.
